# According to patent publication US7875600B2, “Pyrimidine compounds as purine receptor antagonist” (Vernalis (R&D) Limited, priority 2004, dated 2011):
row,Structure (SMILES),melting point
1,"C[C@@H](NC(=O)c1cc(-c2ccco2)nc(N)n1)c1ccccc1 [Example 63, (R)-2-Amino-6-(2-furyl)-N-(1-phenylethyl)pyrimidine-4-carboxamide]",158.8 to 159.1 °C
2,"Nc1nc(C(=O)NCc2nc3ccccc3s2)cc(-c2ccco2)n1 [Example 58, 2-Amino-N-(benzothiazol-2-ylmethyl)-6-(2-furyl)pyrimidine-4-carboxamide]",219.9 to 222.3 °C
3,"Nc1nc(C(=O)N2CCc3ccccc3C2)cc(-c2ccco2)n1 [Example 71, 2-(2-Amino-6-(2-furyl)pyrimidin-4-ylcarbonyl)-1,2,3,4-tetrahydroisoquinoline]",193.3 to 193.6 °C
4,"Nc1nc(C(=O)NCc2ncccc2CN2CCOCC2)cc(-c2ccco2)n1 [Example 22, 2-Amino-6-(2-furyl)-N-(3-(4-morpholinylmethyl)pyridin-2-ylmethyl)pyrimidine-4-carboxamide]",195.5 to 197.5 °C
5,"Nc1nc(C(=O)NCc2ccc3cc[nH]c3c2)cc(-c2ccco2)n1 [Example 48, 2-Amino-6-(2-furyl)-N-(6-indolylmethyl)pyrimidine-4-carboxamide]",193.8 to 194 °C
6,"Nc1nc(C(=O)N2CCCc3ccccc32)cc(-c2ccco2)n1 [Example 72, 1-(2-Amino-6-(2-furyl)pyrimidin-4-ylcarbonyl)-1,2,3,4-tetrahydroquinoline]",203.8 to 204.5 °C
7,"Nc1nc(C(=O)NC2CCc3ccccc32)cc(-c2ccco2)n1 (stereo in doubt) [Example 78, (R)-2-Amino-6-(2-furyl)-N-(1-indanyl)pyrimidine-4-carboxamide]",126.7 to 127.2 °C
8,"Nc1nc(C(=O)NCc2cccc(C(F)(F)F)c2)cc(-c2ccco2)n1 [Example 16, 2-Amino-N-(3-trifluoromethylbenzyl)-6-(2-furyl)pyrimidine-4-carboxamide]",170.6 to 170.7 °C
9,"CC(C)NC(=O)OCc1cccc(CNC(=O)c2cc(-c3ccco3)nc(N)n2)n1 [Example 41, 6-(2-Amino-6-(2-furyl)pyrimidine-4-carboxamidomethyl)pyridin-2-ylmethyl isopropylcarbamate]",155.2 to 155.7 °C
10,"CCCn1ccnc1CNC(=O)c1cc(-c2ccco2)nc(N)n1 [Example 92, 2-Amino-6-(2-furyl)-N-(1-n-propyl-1H-imidazol-2-ylmethyl)pyrimidine-4-carboxamide]",270.7 to 271.5 °C
11,"Nc1nc(C(=O)NC2CCc3ccccc32)cc(-c2ccco2)n1 (stereo in doubt) [Example 79, (S)-2-Amino-6-(2-furyl)-N-(1-indanyl)pyrimidine-4-carboxamide]",111.8 to 112.5 °C
12,"Nc1nc(C(=O)NCCCc2ccccc2)cc(-c2ccco2)n1 [Example 83, 2-Amino-6-(2-furyl)-N-(3-phenylpropyl)pyrimidine-4-carboxamide]",131 to 131.1 °C
13,"Nc1nc(C(=O)NCc2ccc3nsnc3c2)cc(-c2ccco2)n1 [Example 53, 2-Amino-N-([2,1,3]benzothiadiazol-5-ylmethyl)-6-(2-furyl)pyrimidine-4-carboxamide]",171.2 to 172.1 °C
14,"NC(=O)c1cc(-c2ccco2)nc(N)n1 [Example 8, 2-Amino-6-(2-furyl)pyrimidine-4-carboxamide]",218 to 219.8 °C
15,"C[C@H](NC(=O)c1cc(-c2ccco2)nc(N)n1)c1ccccc1 [Example 60, (S)-2-Amino-6-(2-furyl)-N-(1-phenylethyl)pyrimidine-4-carboxamide]",158.7 to 158.9 °C
16,"Nc1nc(C(=O)NCc2ccc3ccccc3n2)cc(-c2ccco2)n1 [Example 57, 2-Amino-6-(2-furyl)-N-(quinolin-2-ylmethyl)pyrimidine-4-carboxamide]",180.9 to 181.4 °C
17,"Cc1ccc(CNC(=O)c2cc(-c3ccco3)nc(N)n2)c(N(C)C)n1 [Example 102, 2-Amino-N-(2-dimethylamino-6-methylpyridin-3-ylmethyl)-6-(2-furyl)pyrimidine-4-carboxamide]",203 to 203.1 °C
18,"Nc1nc(C(=O)NCc2ccc3[nH]ccc3c2)cc(-c2ccco2)n1 [Example 35, 2-Amino-6-(2-furyl)-N-(5-indolylmethyl)pyrimidine-4-carboxamide]",170.1 to 170.5 °C
19,"CCCNC(=O)OCc1cccc(CNC(=O)c2cc(-c3ccco3)nc(N)n2)n1 [Example 85, 6-(2-Amino-6-(2-furyl)pyrimidine-4-carboxamidomethyl)pyridin-2-ylmethyl n-propylcarbamate]",151.6 to 155.7 °C
20,"COCc1cccc(CNC(=O)c2nc(N)nc(-c3ccc(C)o3)c2Br)n1 [Example 117, 2-Amino-5-bromo-N-(6-methoxymethylpyridin-2-ylmethyl)-6-(5-methyl-2-furyl)pyrimidine-4-carboxamide]",193.5 to 195.1 °C
21,"Nc1nc(C(=O)NCc2cccc3cccnc23)cc(-c2ccco2)n1 [Example 49, 2-Amino-6-(2-furyl)-N-(quinolin-8-ylmethyl)pyrimidine-4-carboxamide]",230.7 to 230.9 °C
22,"CCn1ccnc1CNC(=O)c1cc(-c2ccco2)nc(N)n1 [Example 98, 2-Amino-N-(1-ethyl-1H-imidazol-2-ylmethyl)-6-(2-furyl)pyrimidine-4-carboxamide]",263.1 to 264.9 °C

# Other lines, results leading:
row,melting point,Structure (SMILES)
1,155.9 to 156 °C,"Cc1[nH]c2ccc(CNC(=O)c3cc(-c4ccco4)nc(N)n3)cc2c1C [Example 36, 2-Amino-N-(2,3-dimethylindol-5-ylmethyl)-6-(2-furyl)pyrimidine-4-carboxamide]"
2,178 to 178.1 °C,"COc1nc(C)ccc1CNC(=O)c1cc(-c2ccco2)nc(N)n1 [Example 29, 2-Amino-6-(2-furyl)-N-(2-methoxy-6-methylpyridin-3-ylmethyl)pyrimidine-4-carboxamide]"
3,248.2 to 249 °C,"Nc1nc(C(=O)NCCCn2ccnc2)cc(-c2ccco2)n1 [Example 96, 2-Amino-6-(2-furyl)-N-(3-(1H-imidazol-1-yl)propyl)pyrimidine-4-carboxamide]"
4,251.9 to 252.3 °C,"Nc1nc(C(=O)N2CCc3ccccc32)cc(-c2ccco2)n1 [Example 75, 1-(2-Amino-6-(2-furyl)pyrimidin-4-ylcarbonyl)-2,3-dihydroindole]"
5,191.8 to 192.2 °C,"Cc1cc(CNC(=O)c2cc(-c3ccco3)nc(N)n2)ccc1[N+](=O)[O-] [Example 37, 2-Amino-6-(2-furyl)-N-(3-methyl-4-nitrobenzyl)pyrimidine-4-carboxamide]"
6,148 to 148.4 °C,"COCc1ccc(C)c(CNC(=O)c2cc(-c3ccco3)nc(N)n2)n1 [Example 46, 2-Amino-6-(2-furyl)-N-(6-methoxymethyl-3-methylpyridin-2-ylmethyl)pyrimidine-4-carboxamide]"
7,220 to 221.3 °C,"Nc1nc(C(=O)NC2Cc3ccccc3C2)cc(-c2ccco2)n1 [Example 90, 2-Amino-6-(2-furyl)-N-(2-indanyl)pyrimidine-4-carboxamide]"
8,144.1 to 144.3 °C,"CCCc1cccc(CNC(=O)c2cc(-c3nccs3)nc(N)n2)n1 [Example 109, 2-Amino-N-(6-n-propylpyridin-2-ylmethyl)-6-(thiazol-2-yl)pyrimidine-4-carboxamide]"
9,154.5 to 156.9 °C,"Cc1ccc(COCC2CC2)nc1CNC(=O)c1cc(-c2ccco2)nc(N)n1 [Example 59, 2-Amino-N-(6-cyclopropylmethoxymethyl-3-methylpyridin-2-ylmethyl)-6-(2-furyl)pyrimidine-4-carboxamide]"
10,> 200 °C (dec.),"Nc1nc(C(=O)NCc2ncc[nH]2)cc(-c2ccco2)n1 [Example 91, 2-Amino-6-(2-furyl)-N-(1H-imidazol-2-ylmethyl)pyrimidine-4-carboxamide]"
11,202.4 to 202.9 °C,"CN(C)c1ccc(CNC(=O)c2cc(-c3ccco3)nc(N)n2)cc1 [Example 9, 2-Amino-6-(2-furyl)-N-(4-dimethylaminobenzyl)pyrimidine-4-carboxamide]"
12,105.6 to 105.7 °C,"Cc1cc2cc(CNC(=O)c3cc(-c4ccco4)nc(N)n3)ccc2[nH]1 [Example 40, 2-Amino-6-(2-furyl)-N-(2-methylindol-5-ylmethyl)pyrimidine-4-carboxamide]"
13,290.9 to 291.3 °C,"Nc1nc(C(=O)NCc2nc3ccccc3[nH]2)cc(-c2ccco2)n1 [Example 17, 2-Amino-N-(1H-benzimidazol-2-ylmethyl)-6-(2-furyl)pyrimidine-4-carboxamide]"
14,178.1 to 179.3 °C,"Nc1nc(C(=O)NCc2cccc(Br)n2)cc(-c2ccco2)n1 [Example 94, 2-Amino-N-(6-bromopyridin-2-ylmethyl)-6-(2-furyl)pyrimidine-4-carboxamide]"
15,209.5 to 210.3 °C,"Cn1ccnc1CNC(=O)c1cc(-c2ccco2)nc(N)n1 [Example 34, 2-Amino-6-(2-furyl)-N-(1-methyl-1H-imidazol-2-ylmethyl)pyrimidine-4-carboxamide]"
16,168.6 to 168.9 °C,"COCc1cccc(CNC(=O)c2nc(N)nc(-c3ccc(C)o3)c2Cl)n1 [Example 116, 2-Amino-5-chloro-N-(6-methoxymethylpyridin-2-ylmethyl)-6-(5-methyl-2-furyl)pyrimidine-4-carboxamide]"
17,191.9 to 192 °C,"Cc1cnc(CNC(=O)c2cc(-c3ccco3)nc(N)n2)cn1 [Example 88, 2-Amino-6-(2-furyl)-N-(5-methylpyrazin-2-ylmethyl)pyrimidine-4-carboxamide]"
18,139.5 to 143 °C,"Nc1nc(C(=O)N2CCCCC2)cc(-c2ccco2)n1 [Example 5, 1-(2-Amino-6-(2-furyl)pyrimidin-4-ylcarbonyl)piperidine]"
19,226.2 to 226.3 °C,"Nc1nc(C(=O)N2Cc3ccccc3C2)cc(-c2ccco2)n1 [Example 66, 2-(2-Amino-6-(2-furyl)pyrimidin-4-ylcarbonyl)-2,3-dihydro-1H-isoindole]"
20,229.2 to 234.5 °C,"COc1cccc(CNC(=O)c2cc(-c3ccco3)nc(N)n2)c1 [Example 3, 2-Amino-6-(2-furyl)-N-(3-methoxybenzyl)pyrimidine-4-carboxamide]"
